This note sets out measurements from patent US9139615B2, “High-affinity, dimeric inhibitors of PSD-95 as efficient neuroprotectants against ischemic brain damage and for treatment of pain” (University of Copenhagen, priority 2011, dated 2015).

Where no end group is shown, it is not given here.

One data set concerns the target T1, PDZ1-2 of PSD-95 (Homo sapiens, UniProt P78352).
T1 construct: made in house; host or cells: E. coli BL21-DE3 pLysS
Put plainly: Fluorescence polarization (FP) assay, affinity for PDZ1-2 of PSD-95. It is filed as binding. The following applies: Ki ± SEM, affinity towards PDZ1-2 of PSD-95, heterologous competition, probe AB143 0.5 nM, PDZ1-2 […], TBS pH 7.4; IC50 converted to Ki. The text has this:
VI.i. Fluorescence Polarization (FP) Assay: as described below, Example 1 provides a convenient and reliable way to monitor and evaluate the inhibitor properties of a PSD-95 inhibitor of the invention. The FP assay allows a wide range of peptide analogues to be tested and compared with respect to their interaction with PDZ domains, and their specificity with respect to the tandem PDZ1-2 of PSD-95. PDZ1-2 is expressed using standard recombinant DNA technology known to those skilled in the art.
More specifically, the assay is based on a heterologous competition binding assay, where the affinity measured as IC50 of a given (non-fluorescent) peptide analogue for a PDZ domain is measured in the presence of a fixed concentration of a fluorescent labeled dimeric ligand (AB143; FIG. 4). Determined IC50 values are converted to Ki values (Nikolovska-Coleska et al, Anal. Biochem. 2004, 332, p. 261-273). The 5-FAM fluorophore may be attached to the dimeric ligand by coupling with HATU or HBTU.
The cDNA coding for PSD-95 PDZ1-2 tandem (corresponding to residues 61-249 in the human full-length PSD95α without exon 4b) were amplified by inverted PCR and cloned in a modified His-tagged pRSET vector (Invitrogen, Carlsbad, Calif., USA). The encoded PDZ1-2 peptide further comprised the sequence, […] (SEQ ID NO: 14), which was used as a tag for purification (His-tag), and the DNA coding sequences and encoded proteins are designated as follows: HIS-PDZ1-2 DNA [SEQ ID NO: 1] encoding HIS-PDZ1-2 protein [SEQ ID NO: 2]. Competent E. coli bacteria (BL21-DE3, pLysS) were transformed with PDZ1-2 expressing construct and grown overnight on agar plates containing ampicillin (100 μg/mL) and chloramphenicol (35 μg/mL) at 37° C. Colonies were picked and used to inoculate bacterial cultures (LB medium with 50 μg/mL ampicillin). These were shaken while being incubated at 37° C. until A600 of the culture reached 0.45, at which point 1 mM isopropyl β-D-1-thiogalactopyranoside was added. Induced cultures were incubated over night at 30° C. (PDZ1-2). Cells were harvested by spinning at 10,000 g for 10 min at 4° C. and re-suspended in lysis buffer (50 mM Tris/HCL pH 7.5, 1 mM PMSF, 25 μg/ml DNAse, 40 mM Mg2SO4). The cells were destroyed using a cell disruptor apparatus at 26 KPsi. The cell lysate was spun down at 35,000 g for 1 hour and the supernatant filtered with a 0.45 μm and a 0.22 μm filter. Purification of expressed PDZ1-2 peptide was performed with first a nickel (II)-charged column (HisTrap™ HP, GE Healthcare, UK) equilibrated with Tris-buffer (Tris/HCl buffer 50 mM, pH 7.5) followed by gel-filtration. For gel-filtration the PDZ1-2 sample was loaded on a Superdex™ 75 HR 10/30 column (GE Healthcare, UK) equilibrated with Tris buffer (20 mM Tris/HCL, pH 7.5) with a constant flow rate at 0.5 mL/min. The relevant fractions were analyzed on a SDS-PAGE gel stained by a standard silver staining protocol. The final purification was analyzed by electrospray ionization liquid chromatography-mass spectrometry (ESI-LC/MS) to get the exact molecular weight and thereby verify the identity of the PDZ1-2 domain. Molar extinction coefficients were found by amino acids analysis (Alphalyse, Odense, Denmark) and thereafter used for measuring protein concentrations. […]
An in vitro affinity measurement assay was developed based on the fluorescence polarization principle in order to provide affinity constants (Ki values) between synthesized ligands (e.g. dimeric inhibitors) and PDZ1-2 of PSD-95. […]
In general terms: Fluorescence polarisation rises when a labelled molecule tumbles more slowly, as on binding a larger partner.

Data set [1] can be described thus: Physiological status of pMCAO mice (blood values, body weight, temperature, survival). It is filed as in vivo. The following applies: mouse, in vivo. Here is the method: The physiological status of the mice was carefully monitored prior to and during pMCAO surgery in order to exclude the observed effects of treatment with dimeric PSD-95 inhibitors being due to secondary conditions (e.g. disease-related) resulting from the experimental procedure.
9.10 Body weight monitoring: The body weight of each mouse was registered during pre-training, before surgery, and at 24 and 48 hours after surgery and no differences were seen between the treatment groups (FIG. 13).
9.11 Temperature monitoring: The rectal temperature of the mouse was continuously measured using a thermocoupled probe connected to a Model Bat 12 unit (Physitemp). The temperature was measured prior to and 30 min after pMCAO in addition to 30 min and 2.5 hours after i.v. injection, i.e. 1 and 3 hours after pMCAO.
9.12 Blood gas analysis: One samples of venous blood was taken for blood gas analysis of PO2/PCO2 electrolytes, glucose, lactate, and hematocrit, 30 min after compound administration (1 hour after pMCAO). A capillary heparin coated tube was inserted along the inner corner of eye and turned until it penetrated the conjunctiva. A sample of blood (150 μl) was collected and stored on ice until gas analysis using the GEM Premier 300 blood gas instrument (Instrumentation Laboratory) Quality controls (QC ContrlIL9) were purchased from IL Sensor Systems. Also, no differences were detected in blood gas parameters (PO2/PCO2, pH, electrolytes, glu/lac), which were similar between the groups and within normal range, when compared to unmanipulated control mice (Table 4).

T1 sequence (P78352 with tags, fused parts or gaps): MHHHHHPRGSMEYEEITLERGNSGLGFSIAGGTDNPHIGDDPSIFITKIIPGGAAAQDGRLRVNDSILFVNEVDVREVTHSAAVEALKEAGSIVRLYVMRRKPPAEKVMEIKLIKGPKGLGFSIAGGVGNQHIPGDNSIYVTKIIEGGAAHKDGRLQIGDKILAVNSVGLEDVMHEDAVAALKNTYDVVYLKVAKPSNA

One may read the Ki as the dissociation constant of the complex between target and ligand, obtained from inhibition or displacement. Take “YGRKKRRQRRRKLSSIESDV [Tat-NR2B9c, reference compound]”: at PDZ1-2 of PSD-95, the Ki amounted to 4.6 ± 0.3 µM. For the same sequence, in data set [1], the Hct was determined as 40.8 ± 0.6%, the “[Ca2+]” value is reported as 1.32 ± 0.01 mmol/L, the “[K+]” value is reported as 5.1 ± 0.13 mmol/L and the “[Lactate]” value amounted to 0.87 ± 0.07 mmol/L. Moreover, in data set [1], the “[Na+]” value was determined as 147 ± 0.3 mmol/L, the pCO2 is reported as 106 ± 2.4 mmHg and the pO2 turned out to be 55.2 ± 2.6 mmHg.
